Test results from article PMC4349892, “Biochemical Characterization of Three BLT Receptors in Zebrafish” (PLoS ONE, 2015).

How the values were obtained:
Format in all cases: biochemical
Conditions in all cases: agonist; pH 7.4 (calcium); GTPγS binding at 1 μM ligand, 30°C; dose-response curves only in figures
hBLT2 [1] = target: T1, hBLT2 (Homo sapiens, UniProt Q9NPC1); assay: calcium mobilization (Fluo-8), […]GTPγS binding, cAMP inhibition, TGFα shedding
T1 construct: gene LTB4R2; also HEK293 with Gq/i1
T1 sequence (Q9NPC1 1-358): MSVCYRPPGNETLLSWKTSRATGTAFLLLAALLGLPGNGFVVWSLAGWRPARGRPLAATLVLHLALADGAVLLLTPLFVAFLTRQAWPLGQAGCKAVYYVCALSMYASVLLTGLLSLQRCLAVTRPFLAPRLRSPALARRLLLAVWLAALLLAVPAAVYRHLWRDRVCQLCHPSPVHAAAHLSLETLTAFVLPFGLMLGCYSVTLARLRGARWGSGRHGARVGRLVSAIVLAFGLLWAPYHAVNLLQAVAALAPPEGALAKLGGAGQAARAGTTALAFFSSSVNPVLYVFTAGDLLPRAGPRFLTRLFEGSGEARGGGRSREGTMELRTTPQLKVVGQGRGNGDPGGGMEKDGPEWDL

zebrafish Blt2b [2] = target: T2, zebrafish Blt2b (Danio rerio, UniProt E7F4K9); assay: as above
T2 construct: gene ltb4r2b; also HEK293 with Gq/i1; LC009451 assigned by order of listing
T2 sequence (E7F4K9 1-339): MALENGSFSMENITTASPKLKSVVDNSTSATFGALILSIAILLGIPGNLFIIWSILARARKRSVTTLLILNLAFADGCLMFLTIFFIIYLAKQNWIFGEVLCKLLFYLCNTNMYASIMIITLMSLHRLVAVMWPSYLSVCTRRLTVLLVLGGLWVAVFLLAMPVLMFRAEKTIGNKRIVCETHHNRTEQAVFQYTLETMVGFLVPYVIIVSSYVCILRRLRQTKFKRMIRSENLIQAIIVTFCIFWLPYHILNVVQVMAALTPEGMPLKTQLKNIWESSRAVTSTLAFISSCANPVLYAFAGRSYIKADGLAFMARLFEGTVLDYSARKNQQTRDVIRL

hBLT1 = target: T3, hBLT1 (Homo sapiens, UniProt Q15722); assay: as above
T3 construct: gene LTB4R; also HEK293 with Gq/i1

zebrafish Blt2a = target: T4, zebrafish Blt2a (Danio rerio, UniProt A0A0A8JZN4); assay: calcium mobilization (Fluo-8), […]GTPγS binding, TGFα shedding
T4 construct: gene ltb4r2a; also HEK293 with Gq/i1; LC009450 assigned by order of listing
T4 sequence (A0A0A8JZN4 1-382): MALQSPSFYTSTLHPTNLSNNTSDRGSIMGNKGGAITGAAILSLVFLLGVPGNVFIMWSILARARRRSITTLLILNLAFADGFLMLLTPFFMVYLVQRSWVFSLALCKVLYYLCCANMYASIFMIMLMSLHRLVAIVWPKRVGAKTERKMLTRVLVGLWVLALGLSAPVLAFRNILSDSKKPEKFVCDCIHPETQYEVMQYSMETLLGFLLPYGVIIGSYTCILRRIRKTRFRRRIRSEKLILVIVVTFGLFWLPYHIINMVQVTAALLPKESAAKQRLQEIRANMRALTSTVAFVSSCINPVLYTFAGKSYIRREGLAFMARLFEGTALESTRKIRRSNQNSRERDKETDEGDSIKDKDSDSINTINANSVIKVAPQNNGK

zebrafish Blt2b [3] = target: T2, zebrafish Blt2b; assay: as above
zebrafish Blt1 = target: T5, zebrafish Blt1 (Danio rerio, UniProt A0A0A8JWS4); assay: calcium mobilization (Fluo-8), […]GTPγS binding, cAMP inhibition, TGFα shedding
T5 construct: gene ltb4r; also HEK293 with Gq/i1
T5 sequence (A0A0A8JWS4 1-380): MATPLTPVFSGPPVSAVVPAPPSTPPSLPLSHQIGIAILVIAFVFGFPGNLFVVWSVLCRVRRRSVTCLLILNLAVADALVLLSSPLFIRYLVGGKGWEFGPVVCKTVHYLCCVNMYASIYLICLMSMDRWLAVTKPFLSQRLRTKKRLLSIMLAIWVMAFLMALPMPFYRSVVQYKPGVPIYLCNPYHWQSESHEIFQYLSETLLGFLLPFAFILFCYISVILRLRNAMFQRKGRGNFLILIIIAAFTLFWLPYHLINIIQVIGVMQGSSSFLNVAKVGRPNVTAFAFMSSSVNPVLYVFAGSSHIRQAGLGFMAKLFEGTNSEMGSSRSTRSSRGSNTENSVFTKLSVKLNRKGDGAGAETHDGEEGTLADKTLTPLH

hBLT2 [4] = target: T1, hBLT2

T3 sequence (Q15722 whole entry): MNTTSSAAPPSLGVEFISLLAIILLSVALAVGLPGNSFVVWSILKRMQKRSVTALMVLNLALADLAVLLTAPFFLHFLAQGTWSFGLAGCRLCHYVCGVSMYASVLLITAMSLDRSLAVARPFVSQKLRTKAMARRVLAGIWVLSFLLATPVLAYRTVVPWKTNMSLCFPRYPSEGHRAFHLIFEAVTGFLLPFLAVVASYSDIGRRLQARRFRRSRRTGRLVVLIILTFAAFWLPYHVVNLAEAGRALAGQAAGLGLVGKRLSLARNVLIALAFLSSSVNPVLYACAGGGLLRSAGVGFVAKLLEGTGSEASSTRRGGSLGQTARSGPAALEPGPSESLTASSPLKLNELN

CCCCC[C@H](O)/C=C/C=C/C/C=C\CCCC(=O)O [12-HHT, 12(S)-hydroxy-5-cis-8,10-trans-heptadecatrienoic acid]
calcium mobilization (Fluo-8), [35S]GTPγS binding, cAMP inhibition, TGFα sheddin (hBLT2 [1]): exhibited a dose-dependent increase in response to either 12-HHT or LTB4 stimulation
calcium mobilization (Fluo-8), [35S]GTPγS binding, cAMP inhibition, TGFα sheddin (zebrafish Blt2b [2]): 12-HHT activated zebrafish Blt2a and Blt2b at lower doses than LTB4

CCCCC/C=C\C[C@@H](O)/C=C/C=C/C=C\[C@@H](O)CCCC(=O)O [LTB4]
calcium mobilization (Fluo-8), [35S]GTPγS binding, cAMP inhibition, TGFα sheddin (hBLT1): intracellular free calcium concentration increased in a dose-dependent manner in response to LTB4 stimulation
calcium mobilization (Fluo-8), [35S]GTPγS binding, TGFα shedding (zebrafish Blt2a): exhibited a dose-dependent increase in response to either 12-HHT or LTB4 stimulation
calcium mobilization (Fluo-8), [35S]GTPγS binding, TGFα shedding (zebrafish Blt2b [3]): exhibited a dose-dependent increase in response to either 12-HHT or LTB4 stimulation
calcium mobilization (Fluo-8), [35S]GTPγS binding, cAMP inhibition, TGFα sheddin (zebrafish Blt1): intracellular free calcium concentration increased in a dose-dependent manner in response to LTB4 stimulation
calcium mobilization (Fluo-8), [35S]GTPγS binding, TGFα shedding (hBLT2 [4]): exhibited a dose-dependent increase in response to either 12-HHT or LTB4 stimulation
